The target in experiment [1] is T1, Potassium/sodium hyperpolarization-activated cyclic nucleotide-gated channel 4 (Mus musculus) (UniProt O70507).
T1 sequence (whole entry): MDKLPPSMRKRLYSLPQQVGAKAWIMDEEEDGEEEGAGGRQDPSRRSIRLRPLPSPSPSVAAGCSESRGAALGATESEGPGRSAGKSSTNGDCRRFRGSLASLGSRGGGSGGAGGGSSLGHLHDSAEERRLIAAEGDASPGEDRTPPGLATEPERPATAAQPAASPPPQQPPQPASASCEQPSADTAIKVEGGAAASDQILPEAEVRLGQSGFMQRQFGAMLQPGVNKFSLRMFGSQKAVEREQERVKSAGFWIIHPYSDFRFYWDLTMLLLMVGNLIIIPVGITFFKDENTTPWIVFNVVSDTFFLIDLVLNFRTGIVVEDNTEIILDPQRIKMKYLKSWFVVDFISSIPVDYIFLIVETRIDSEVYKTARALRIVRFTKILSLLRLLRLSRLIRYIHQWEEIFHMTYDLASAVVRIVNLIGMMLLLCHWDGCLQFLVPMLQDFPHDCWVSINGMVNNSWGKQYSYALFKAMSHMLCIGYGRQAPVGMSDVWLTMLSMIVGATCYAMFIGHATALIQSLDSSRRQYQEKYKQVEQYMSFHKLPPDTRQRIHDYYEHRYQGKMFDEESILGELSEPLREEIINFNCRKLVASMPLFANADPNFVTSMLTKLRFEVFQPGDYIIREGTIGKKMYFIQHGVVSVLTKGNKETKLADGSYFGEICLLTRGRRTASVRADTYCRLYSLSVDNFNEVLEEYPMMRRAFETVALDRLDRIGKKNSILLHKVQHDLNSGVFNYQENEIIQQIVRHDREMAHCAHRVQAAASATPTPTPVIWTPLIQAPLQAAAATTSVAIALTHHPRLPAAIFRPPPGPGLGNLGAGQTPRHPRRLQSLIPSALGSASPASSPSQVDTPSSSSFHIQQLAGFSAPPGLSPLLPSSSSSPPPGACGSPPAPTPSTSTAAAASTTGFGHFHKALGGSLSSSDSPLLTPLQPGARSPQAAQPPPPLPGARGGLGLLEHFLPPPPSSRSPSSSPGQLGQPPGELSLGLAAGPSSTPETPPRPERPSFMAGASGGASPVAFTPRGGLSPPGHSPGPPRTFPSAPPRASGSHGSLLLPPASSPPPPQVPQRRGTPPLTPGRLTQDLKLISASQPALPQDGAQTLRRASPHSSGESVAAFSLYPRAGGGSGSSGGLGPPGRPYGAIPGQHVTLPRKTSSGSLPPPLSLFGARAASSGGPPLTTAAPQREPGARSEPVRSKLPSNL
The experiment in a line: Inhibition of HCN4 in C57BL/6J mouse thalamocortical relay neuron assessed as reduction in hyperpolarization current at 30 uM at holding potential of -120 mV by whole-cell patch clamp assay relative to control.

The species named for the next experiment is Cavia porcellus. The experiment in a line: Inhibition of HCN4 in guinea pig single sinoatrial node assessed as reduction in hyperpolarization activated current at 10 uM at holding potential of -120 mV by patch clamp assay relative to control. In general terms: The patch-clamp technique gives a direct electrical read-out from membranes.
Experiment [2] relates to Cardiac muscle of left ventricle. The experiment in a line: Effect on cardiac electrophysiological profile in Mongrel perfused dog heart left ventricular muscle stimulated at basic cycle length of 1000 milliseconds assessed as action potential time duration at 50% of repolarization at 10 uM measured after 25 mins by glass capillary microelectrode based electrophysiology assay (reference value: 176 +/- 16.36 milliseconds). Type of experiment: functional, Canis lupus familiaris.

For experiment [3] the test system is unchanged. The experiment is described as follows: Effect on cardiac electrophysiological profile in Mongrel perfused dog heart left ventricular muscle stimulated at basic cycle length of 1000 milliseconds assessed as action potential time duration at 10% of repolarization at 1 uM measured after 25 mins by glass capillary microelectrode based electrophysiology assay (reference value: 69.9 +/- 10.84 milliseconds). Type of experiment: functional, Canis lupus familiaris.

The next experiment is filed under the species Mus musculus. The experiment is described as follows: Effect on voltage-dependent K+ channel in C57BL/6J mouse thalamocortical relay neuron assessed as inhibition of step depolarization-induced K+ outward current at 10 uM by whole cell patch clamp assay relative to control.
For experiment [4], the system named is Cardiac muscle of left ventricle. The experiment in a line: Effect on cardiac electrophysiological profile in Mongrel perfused dog heart left ventricular muscle stimulated at basic cycle length of 1000 milliseconds assessed as action potential time duration at 90% of repolarization at 10 uM measured after 25 mins by glass capillary microelectrode based electrophysiology assay (reference value: 212.5 +/- 16.25 milliseconds). Type of experiment: functional, Canis lupus familiaris.

Regarding `COc1ccc(CCN(C)[C@@H]2CCC[C@H](N3CCc4cc(OC)c(OC)cc4CC3=O)C2)cc1OC` (racemic), the inhibition in experiment [1] was determined as 91.3%; in the experiment listed under Cavia porcellus, 67%; in the experiment filed under Mus musculus it was 14.5%. The Time in experiment [2] turned out to be 179.9 ms; in experiment [3] it was 58.6 ms; in experiment [4], 220.2 ms.

Usually inhibition stands for the percentage by which the read-out fell short of the control.

These data come from ChEMBL document CHEMBL4433219, “EC18 as a Tool To Understand the Role of HCN4 Channels in Mediating Hyperpolarization-Activated Current in Tissues” (ACS Med Chem Lett, 2019).
